{
  "source": "paper PMC11189555",
  "about": "“Aryl amino acetamides prevent Plasmodium falciparum ring development via targeting the lipid-transfer protein PfSTART1” (Nature Communications, 2024)",
  "key": {"[1]": {"tested_on": "parasitophorous vacuole membrane of newly invaded merozoites", "test": "Lattice light sheet imaging and vacuole tracking", "type": "cell-based, Plasmodium falciparum", "conditions": "60 nM W-991 vs DMSO", "procedure": "Parasites were sorbitol synchronised at days 5 and 2 prior to filming. To prepare the parasites for filming, culture was loaded on LS columns attached to MACS MultiStand (Miltenyi Biotec) to isolate late-stage parasites. Imaging medium was prepared by adding 10 μM Trolox (Santa Cruz 53188-07-1) to the culture medium. To compare the effect of drug treatment on parasite invasion, either 60 nM of W-991 or an equivalent DMSO concentration was added to the imaging medium. RBCs were resuspended at 0.5% hematocrit in RPMI-HEPES supplemented with 0.2% sodium bicarbonate and stained with 1.5 μM Di-4-[…] (Invitrogen D36802) membrane marker for 1 h at 37 °C. The stained RBCs were then washed 3 x and resuspended in imaging medium. Purified schizonts were resuspended in culture medium and incubated with 25 nM Mitotracker Deep Red FM (Invitrogen M22426) for 30 min at 37 °C, 5% CO2. The stained schizonts were then pelleted and the supernatant removed before resuspending the schizonts in the imaging medium. Before imaging, imaging medium with drug was loaded to a well and imaging medium with DMSO control was loaded to another well on an 8-well glass bottom plate (Ibidi 80807). Stained RBCs and stained schizonts were then added to each well and let settle for 30 min. The imaging experiments were performed on Zeiss Lattice Lightsheet 7. […]"}, "stage IV-V gametocytes": {"tested_on": "stage IV-V gametocytes", "test": "Standard membrane feeding assay: stage V gametocytes on day 17", "type": "cell-based, Plasmodium falciparum", "conditions": "days 14-17; for Percentage of Stage V gametocytes: Fig 7C, untreated 4.75", "procedure": "These assays were performed at the Walter and Eliza Hall Institute and at the London School of Hygiene and Tropical Medicine using slightly different approaches which are described in the Supplementary Information. […]\nGametocyte culturing and standard membrane feeding assay (London School of Hygiene and Tropical Medicine). P. falciparum NF54 gametocytes were prepared for blood-feeding to mosquitoes according to the method described by 13, with some slight modifications. Briefly, gametocyte cultures seeded at 2% overall parasitaemia and 4% haematocrit were maintained at 37 °C for 17 days with daily media changes.\nGametocyte functional viability was assessed by ex-flagellation assay at day 14 post induction, observed by light microscopy. An. stephensi (SD500 strain) were reared as […]\nGametocyte aliquots from a single NF54 culture, produced as above, were incubated […]\nor culture medium only (no -drug control) from day 14 until day 17 when SMFA was carried out. Fresh drug -containing media was provided each day during this exposure.\nPots of 70 -80 two- to five-day old female An. stephensi mosquitoes were allowed to feed on 500 µL of the respective culture+drug mixture, presented to each pot in a pre - heated 3D -printed water channel membrane feeder 15, until fully fed. Mosquitoes were placed in an incubator at standard conditions and midguts dissected in 0.25% mercurochrome stain for oocyst counts by light microscopy 7-8 days post-feed. […]"}},
  "note": "“Also recorded” adds a separate entry of the source.",
  "data": [
    {"compound": "CC(C)(Nc1ccc(Cl)c(S(=O)(=O)N2CCOCC2)c1)C(=O)Nc1ccc(F)c(Cl)c1", "note": "[W-991]", "values": [
      {"measurement": "shape/sphericity of the PVM of newly invaded merozoites", "setting": "[1]; p = 0.045 at 15 min", "result": "remained spherical"},
      {"measurement": "mean vacuole surface area and volume of the PVM", "setting": "[1]; p = 0.109, p = 0.129", "result": "reduced in W-991 but this did not reach significance"},
      {"measurement": "Percentage of Stage V gametocytes", "setting": "stage IV-V gametocytes; W-991 1 nM", "result": 5, "unit": "%"},
      {"measurement": "Percentage of Stage V gametocytes", "setting": "stage IV-V gametocytes; W-991 50 nM", "result": 5.3, "unit": "%"},
      {"measurement": "Percentage of Stage V gametocytes", "setting": "stage IV-V gametocytes; W-991 100 nM", "result": 5, "unit": "%"},
      {"measurement": "effect on gametocyte development", "setting": "stage IV-V gametocytes; W-991 1, 50, 100 nM", "result": "no defect in gametocyte development; also recorded: no impact"}
    ]}
  ]
}
